17 compounds from patent US8957078B2, “Compounds useful as inhibitors of ATR kinase” (Vertex Pharmaceuticals Incorporated, priority 2013, dated 2015) can be followed below.

Test [1] deals with T1, ATR kinase (full-length ATR) (Homo sapiens, UniProt Q13535).
T1 construct: in the presence of 5 nM full-length ATR
Put plainly: ATR Inhibition Assay (radioactive-phosphate incorporation). Format: biochemical. Conditions: Ki(app); 5 nM full-length ATR, 10 μM ATP, 800 μM target peptide, 25° C.

The test system of test [2] is HCT116 colorectal cancer cells. Put plainly: Cisplatin Sensitization Assay (96 h cell viability MTS). Format: cell-based. As to conditions: concentration of compound required to reduce the IC50 of Cisplatin alone by at least 3-fold; HCT116, 96 h MTS. A digest of the protocol:
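HCT116 cells treated 96 h at 37 °C with compound and cisplatin together as a full matrix of 2-fold dilutions, each from 10 μM final top concentration. Viability by MTS, absorbance 490 nm. Value reported: compound concentration lowering cisplatin IC50 at least 3-fold.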

T1 sequence (Q13535 whole entry): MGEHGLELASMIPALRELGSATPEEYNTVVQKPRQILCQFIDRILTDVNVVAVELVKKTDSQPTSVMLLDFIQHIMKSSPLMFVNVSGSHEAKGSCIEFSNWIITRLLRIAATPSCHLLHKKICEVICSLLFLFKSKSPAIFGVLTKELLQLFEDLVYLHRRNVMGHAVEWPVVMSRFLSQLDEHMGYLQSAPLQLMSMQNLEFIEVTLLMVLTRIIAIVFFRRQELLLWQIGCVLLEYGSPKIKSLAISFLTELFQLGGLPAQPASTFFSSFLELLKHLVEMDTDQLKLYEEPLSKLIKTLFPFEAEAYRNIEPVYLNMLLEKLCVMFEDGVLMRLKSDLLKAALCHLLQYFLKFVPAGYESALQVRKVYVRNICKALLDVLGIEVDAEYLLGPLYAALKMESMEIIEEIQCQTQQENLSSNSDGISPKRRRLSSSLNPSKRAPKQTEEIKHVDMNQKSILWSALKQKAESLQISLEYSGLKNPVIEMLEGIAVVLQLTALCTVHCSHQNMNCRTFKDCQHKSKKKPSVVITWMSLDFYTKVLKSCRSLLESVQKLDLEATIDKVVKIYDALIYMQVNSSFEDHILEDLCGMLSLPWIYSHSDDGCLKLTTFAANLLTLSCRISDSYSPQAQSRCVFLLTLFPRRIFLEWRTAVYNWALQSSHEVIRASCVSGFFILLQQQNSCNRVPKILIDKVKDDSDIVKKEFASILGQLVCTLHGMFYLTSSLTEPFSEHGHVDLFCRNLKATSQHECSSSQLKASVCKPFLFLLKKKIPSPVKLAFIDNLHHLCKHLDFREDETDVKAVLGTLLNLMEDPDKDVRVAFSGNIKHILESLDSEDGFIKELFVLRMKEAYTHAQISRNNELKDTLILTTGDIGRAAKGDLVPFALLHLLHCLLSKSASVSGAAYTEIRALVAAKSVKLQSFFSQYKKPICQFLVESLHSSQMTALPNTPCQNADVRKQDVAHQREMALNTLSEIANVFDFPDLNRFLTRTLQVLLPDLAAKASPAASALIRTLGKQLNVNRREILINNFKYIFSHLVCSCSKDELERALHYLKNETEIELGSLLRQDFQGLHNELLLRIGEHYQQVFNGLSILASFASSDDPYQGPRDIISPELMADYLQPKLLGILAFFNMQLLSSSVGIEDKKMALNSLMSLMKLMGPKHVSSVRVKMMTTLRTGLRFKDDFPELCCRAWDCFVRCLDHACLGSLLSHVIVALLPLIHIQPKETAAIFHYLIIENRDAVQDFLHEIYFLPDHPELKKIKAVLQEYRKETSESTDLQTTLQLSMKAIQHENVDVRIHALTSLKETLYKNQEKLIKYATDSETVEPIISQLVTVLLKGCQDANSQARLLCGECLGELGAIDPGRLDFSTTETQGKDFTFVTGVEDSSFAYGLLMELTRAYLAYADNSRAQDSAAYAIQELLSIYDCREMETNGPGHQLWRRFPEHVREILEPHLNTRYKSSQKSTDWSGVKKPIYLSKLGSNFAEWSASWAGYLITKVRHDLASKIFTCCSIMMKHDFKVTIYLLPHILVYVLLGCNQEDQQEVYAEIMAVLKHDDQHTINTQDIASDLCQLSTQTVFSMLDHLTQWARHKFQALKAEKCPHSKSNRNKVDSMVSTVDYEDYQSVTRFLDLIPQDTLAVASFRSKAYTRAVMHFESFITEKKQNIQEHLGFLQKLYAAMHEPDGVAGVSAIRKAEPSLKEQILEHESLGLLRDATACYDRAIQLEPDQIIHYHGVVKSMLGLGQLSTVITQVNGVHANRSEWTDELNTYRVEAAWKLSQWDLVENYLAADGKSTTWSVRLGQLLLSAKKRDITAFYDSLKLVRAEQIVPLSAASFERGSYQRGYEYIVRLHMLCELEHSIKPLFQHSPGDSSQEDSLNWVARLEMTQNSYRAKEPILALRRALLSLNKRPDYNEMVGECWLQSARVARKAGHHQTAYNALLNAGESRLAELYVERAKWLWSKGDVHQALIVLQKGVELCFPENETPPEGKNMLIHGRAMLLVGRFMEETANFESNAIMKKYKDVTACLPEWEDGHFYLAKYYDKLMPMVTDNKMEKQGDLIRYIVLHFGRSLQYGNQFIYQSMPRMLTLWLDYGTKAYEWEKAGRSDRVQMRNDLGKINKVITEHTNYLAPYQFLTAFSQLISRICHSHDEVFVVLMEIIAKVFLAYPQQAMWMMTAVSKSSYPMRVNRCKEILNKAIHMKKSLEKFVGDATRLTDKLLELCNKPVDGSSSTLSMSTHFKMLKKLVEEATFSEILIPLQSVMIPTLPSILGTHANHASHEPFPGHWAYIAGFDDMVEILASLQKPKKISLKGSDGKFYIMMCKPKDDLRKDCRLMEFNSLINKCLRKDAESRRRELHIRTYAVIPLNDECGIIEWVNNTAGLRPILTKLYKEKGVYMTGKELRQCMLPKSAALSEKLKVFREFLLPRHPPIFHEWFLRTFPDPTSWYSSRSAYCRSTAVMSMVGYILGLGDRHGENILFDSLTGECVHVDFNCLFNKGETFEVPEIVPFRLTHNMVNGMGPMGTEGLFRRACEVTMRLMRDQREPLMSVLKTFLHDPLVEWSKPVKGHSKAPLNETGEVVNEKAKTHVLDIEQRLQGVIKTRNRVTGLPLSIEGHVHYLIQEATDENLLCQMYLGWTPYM

As to `Cc1nsc(NC(=O)c2c(N)nn3cc(F)cnc23)c1-c1cncn1C` [I-E-6, 2-amino-6-fluoro-N-(3-methyl-4-(1-methyl-1H-imidazol-5-yl)isothiazol-5-yl)pyrazolo[1,5-a]pyrimidine-3-carboxamide], the Ki in test [1] was in the range of 10 to 1000 nM. Moreover, in test [2], the “Cisplatin Sensitization Assay” value is “+++ (Compounds with a Cisplatin sensitization value of <0.02 μM are marked with “+++.”)”.

As for `CN1CC[C@@H](Oc2ncncc2NC(=O)c2c(N)nn3cc(F)cnc23)C1` [I-A-10, (R)-2-amino-6-fluoro-N-(4-((1-methylpyrrolidin-3-yl)oxy)pyrimidin-5-yl)pyrazolo[1,5-a]pyrimidine-3-carboxamide], the Ki in test [1] fell in the range of 10 to 1000 nM. Also, the “Cisplatin Sensitization Assay” value in test [2] is “+ (Compounds with a Cisplatin sensitization value >0.2 μM but <5 μM are marked with “+.”)”.

As to `Nc1nn2cc(F)cnc2c1C(=O)Nc1cncn1-c1cccnc1` [I-D-5, 2-amino-6-fluoro-N-(1-(pyridin-3-yl)-1H-imidazol-5-yl)pyrazolo[1,5-a]pyrimidine-3-carboxamide], the Ki in test [1] lay within 10 to 1000 nM. The “Cisplatin Sensitization Assay” value in test [2] was “++ (Compounds with a Cisplatin sensitization value >0.02 μM but <0.2 μM are marked with “++.”)”.

On to `Cc1cc(-c2c(C)nsc2NC(=O)c2c(N)nn3cc(F)cnc23)n(C)n1` [I-E-16, 2-amino-N-(4-(1,3-dimethyl-1H-pyrazol-5-yl)-3-methylisothiazol-5-yl)-6-fluoropyrazolo[1,5-a]pyrimidine-3-carboxamide], for which the Ki in test [1] was in the range of 10 to 1000 nM. In test [2], the “Cisplatin Sensitization Assay” value is recorded as “+++ (Compounds with a Cisplatin sensitization value of <0.02 μM are marked with “+++.”)”.

Regarding `CC(C)Oc1ncncc1NC(=O)c1c(N)nn2ccc(OCCN(C)C)nc12` [I-A-15, 2-amino-5-(2-(dimethylamino)ethoxy)-N-(4-isopropoxypyrimidin-5-yl)pyrazolo[1,5-a]pyrimidine-3-carboxamide], the Ki in test [1] lay within 1000 to 5000 nM. In addition, the “Cisplatin Sensitization Assay” value in test [2] is “+ (Compounds with a Cisplatin sensitization value >0.2 μM but <5 μM are marked with “+.”)”.

For the compound `Nc1nn2cc(F)cnc2c1C(=O)Nc1cncnc1O[C@@H]1CN2CCC1CC2` [I-A-4, (S)-2-amino-6-fluoro-N-(4-(quinuclidin-3-yloxy)pyrimidin-5-yl)pyrazolo[1,5-a]pyrimidine-3-carboxamide], the Ki in test [1] fell in the range of 10 to 1000 nM. Moreover, in test [2], the “Cisplatin Sensitization Assay” value was “++ (Compounds with a Cisplatin sensitization value >0.02 μM but <0.2 μM are marked with “++.”)”.

In the case of `Cc1nsc(NC(=O)c2c(N)nn3cc(F)cnc23)c1CN1CCN(C)CC1` [I-E-19, 2-amino-6-fluoro-N-(3-methyl-4-((4-methylpiperazin-1-yl)methyl)isothiazol-5-yl)pyrazolo[1,5-a]pyrimidine-3-carboxamide], in test [1], the Ki was < 10 nM. The “Cisplatin Sensitization Assay” value in test [2] is given as “+++ (Compounds with a Cisplatin sensitization value of <0.02 μM are marked with “+++.”)”.

For the compound `Cc1nsc(NC(=O)c2c(N)nn3cc(F)cnc23)c1C1=CCOCC1` [I-E-4, 2-amino-N-(4-(3,6-dihydro-2H-pyran-4-yl)-3-methylisothiazol-5-yl)-6-fluoropyrazolo[1,5-a]pyrimidine-3-carboxamide], in test [1], the Ki is < 10 nM. In test [2], the “Cisplatin Sensitization Assay” value is “+++ (Compounds with a Cisplatin sensitization value of <0.02 μM are marked with “+++.”)”.

For `Nc1nn2cc(F)cnc2c1C(=O)Nc1cnncc1N1CCC(C(=O)N2CC(F)C2)CC1` [I-B-22, 2-amino-6-fluoro-N-(5-(4-(3-fluoroazetidine-1-carbonyl)piperidin-1-yl)pyridazin-4-yl)pyrazolo[1,5-a]pyrimidine-3-carboxamide], the Ki in test [1] is < 10 nM. Besides, the “Cisplatin Sensitization Assay” value in test [2] was “+++ (Compounds with a Cisplatin sensitization value of <0.02 μM are marked with “+++.”)”.

In the case of `Nc1nn2cc(F)cnc2c1C(=O)Nc1ccncc1N1CCC(C(=O)N2CCN(C3COC3)CC2)CC1` [I-C-9, 2-amino-6-fluoro-N-(3-(4-(4-(oxetan-3-yl)piperazine-1-carbonyl)piperidin-1-yl)pyridin-4-yl)pyrazolo[1,5-a]pyrimidine-3-carboxamide], the Ki in test [1] was 10 to 1000 nM. For the same compound, the “Cisplatin Sensitization Assay” value in test [2] is “++ (Compounds with a Cisplatin sensitization value >0.02 μM but <0.2 μM are marked with “++.”)”.

On to `CC(=O)N1CC=C(c2c(C)nsc2NC(=O)c2c(N)nn3cc(F)cnc23)CC1` [I-E-9, N-(4-(1-acetyl-1,2,3,6-tetrahydropyridin-4-yl)-3-methylisothiazol-5-yl)-2-amino-6-fluoropyrazolo[1,5-a]pyrimidine-3-carboxamide], for which the Ki in test [1] was in the range of 10 to 1000 nM. For the same compound, the “Cisplatin Sensitization Assay” value in test [2] is “+++ (Compounds with a Cisplatin sensitization value of <0.02 μM are marked with “+++.”)”.

Take `Nc1nn2cc(F)cnc2c1C(=O)Nc1cnncc1N1CCC(F)CC1` [I-B-20, 2-amino-6-fluoro-N-(5-(4-fluoropiperidin-1-yl)pyridazin-4-yl)pyrazolo[1,5-a]pyrimidine-3-carboxamide]: the Ki in test [1] is 10 to 1000 nM. In test [2], the “Cisplatin Sensitization Assay” value was “+++ (Compounds with a Cisplatin sensitization value of <0.02 μM are marked with “+++.”)”.

`Cc1nsc(NC(=O)c2c(N)nn3cc(F)cnc23)c1-c1ccccc1` [I-E-7, 2-amino-6-fluoro-N-(3-methyl-4-phenylisothiazol-5-yl)pyrazolo[1,5-a]pyrimidine-3-carboxamide]: the Ki in test [1] was < 10 nM. Moreover, the “Cisplatin Sensitization Assay” value in test [2] is recorded as “+++ (Compounds with a Cisplatin sensitization value of <0.02 μM are marked with “+++.”)”.

As to `CS(=O)(=O)C1CCN(c2cnncc2NC(=O)c2c(N)nn3cc(F)cnc23)CC1` [I-B-23, 2-amino-6-fluoro-N-(5-(4-(methylsulfonyl)piperidin-1-yl)pyridazin-4-yl)pyrazolo[1,5-a]pyrimidine-3-carboxamide], the Ki in test [1] is 10 to 1000 nM. Moreover, in test [2], the “Cisplatin Sensitization Assay” value was “++ (Compounds with a Cisplatin sensitization value >0.02 μM but <0.2 μM are marked with “++.”)”.

Consider `Cc1nsc(NC(=O)c2c(N)nn3cc(F)cnc23)c1-c1cncnc1` [I-E-11, 2-amino-6-fluoro-N-(3-methyl-4-(pyrimidin-5-yl)isothiazol-5-yl)pyrazolo[1,5-a]pyrimidine-3-carboxamide], for which, in test [1], the Ki lay in the range of 10 to 1000 nM. In addition, the “Cisplatin Sensitization Assay” value in test [2] was “++ (Compounds with a Cisplatin sensitization value >0.02 μM but <0.2 μM are marked with “++.”)”.

Regarding `Cc1ncccc1-c1c(C)nsc1NC(=O)c1c(N)nn2cc(F)cnc12` [I-E-1, 2-amino-6-fluoro-N-(3-methyl-4-(2-methylpyridin-3-yl)isothiazol-5-yl)pyrazolo[1,5-a]pyrimidine-3-carboxamide], in test [1], the Ki is < 10 nM. In addition, in test [2], the “Cisplatin Sensitization Assay” value is “+++ (Compounds with a Cisplatin sensitization value of <0.02 μM are marked with “+++.”)”.

In the case of `Cc1ncccc1-c1cnccc1NC(=O)c1c(N)nn2cc(F)cnc12` [I-C-5, 2-amino-6-fluoro-N-(2′-methyl-[3,3′-bipyridin]-4-yl)pyrazolo[1,5-a]pyrimidine-3-carboxamide], the Ki in test [1] was 10 to 1000 nM. Moreover, the “Cisplatin Sensitization Assay” value in test [2] is given as “++ (Compounds with a Cisplatin sensitization value >0.02 μM but <0.2 μM are marked with “++.”)”.
